Reference: BindingDB's records for doi:10.1016/S0960-894X(00)80511-9 (1992)

Target: Seed linoleate 13S-lipoxygenase-1 (Glycine max) (UniProt P08170)
Assay: Inhibitory activity against soybean 15-lipoxygenase was evaluated

Seed linoleate 13S-lipoxygenase-1 (Glycine max), sequence (P08170 whole entry, looked up): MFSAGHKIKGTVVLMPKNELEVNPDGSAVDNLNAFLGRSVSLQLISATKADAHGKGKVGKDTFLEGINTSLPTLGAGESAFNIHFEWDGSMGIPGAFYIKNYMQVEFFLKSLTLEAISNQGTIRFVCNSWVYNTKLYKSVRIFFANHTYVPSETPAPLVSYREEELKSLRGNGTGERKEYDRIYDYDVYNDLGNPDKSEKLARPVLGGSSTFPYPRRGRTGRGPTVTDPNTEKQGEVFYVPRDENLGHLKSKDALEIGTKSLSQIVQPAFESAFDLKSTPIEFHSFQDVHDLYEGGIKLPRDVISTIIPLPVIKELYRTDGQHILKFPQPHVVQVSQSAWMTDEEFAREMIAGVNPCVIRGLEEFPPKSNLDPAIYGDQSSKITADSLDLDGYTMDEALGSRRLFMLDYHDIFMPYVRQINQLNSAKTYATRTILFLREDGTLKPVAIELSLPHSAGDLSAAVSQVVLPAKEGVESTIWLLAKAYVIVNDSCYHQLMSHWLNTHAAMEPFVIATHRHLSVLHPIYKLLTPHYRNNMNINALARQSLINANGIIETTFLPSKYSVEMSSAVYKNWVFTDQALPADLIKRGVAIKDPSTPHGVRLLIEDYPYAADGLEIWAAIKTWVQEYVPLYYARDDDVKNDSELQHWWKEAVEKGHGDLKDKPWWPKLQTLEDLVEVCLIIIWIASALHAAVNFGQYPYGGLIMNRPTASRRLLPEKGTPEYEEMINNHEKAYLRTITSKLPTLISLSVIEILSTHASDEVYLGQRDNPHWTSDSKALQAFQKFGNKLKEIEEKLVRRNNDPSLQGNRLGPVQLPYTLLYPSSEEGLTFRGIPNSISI

In the case of NC1=NN(c2cccc(C(F)(F)F)c2)CC1 [1-(3-Trifluoromethyl-phenyl)-4,5-dihydro-1H-pyrazol-3-ylamine], the IC50 is reported as 213 µM.
